Results taken from PubChem BioAssay (NCI).
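Cells were grown in 96-well plates and exposed to each compound for 48 hours at five concentrations; endpoints were interpolated linearly between bracketing concentrations, or set to the highest concentration if not reached. The concentration for full growth arrest is given as TGI.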

Tests used:
Test in all cases: DTP human tumour cell line panel, 48 h
SF-268 CNS = test system: SF-268 CNS
KM12 colon = test system: KM12 colon
DMS 273 small cell lung = test system: DMS 273 small cell lung
OVCAR-4 ovarian = test system: OVCAR-4 ovarian
SK-MEL-2 melanoma = test system: SK-MEL-2 melanoma
ACHN renal = test system: ACHN renal
LXFL 529 NSCLC = test system: LXFL 529 NSCLC
786-0 renal = test system: 786-0 renal
CAKI-1 renal = test system: CAKI-1 renal
COLO 205 colon = test system: COLO 205 colon
HOP-18 NSCLC = test system: HOP-18 NSCLC
HT29 colon = test system: HT29 colon
OVCAR-3 ovarian = test system: OVCAR-3 ovarian
SK-OV-3 ovarian = test system: SK-OV-3 ovarian
MOLT-4 leukemia = test system: MOLT-4 leukemia
M14 melanoma = test system: M14 melanoma
OVCAR-8 ovarian = test system: OVCAR-8 ovarian
HL-60(TB) leukemia = test system: HL-60(TB) leukemia
SF-295 CNS = test system: SF-295 CNS
LOX IMVI melanoma = test system: LOX IMVI melanoma
U251 CNS = test system: U251 CNS
SK-MEL-28 melanoma = test system: SK-MEL-28 melanoma
HOP-62 NSCLC = test system: HOP-62 NSCLC
MALME-3M melanoma = test system: MALME-3M melanoma
KM20L2 colon = test system: KM20L2 colon
UO-31 renal = test system: UO-31 renal
A498 renal = test system: A498 renal
SF-539 CNS = test system: SF-539 CNS
A549 NSCLC = test system: A549 NSCLC
NCI-H522 lung = test system: NCI-H522 lung
SNB-75 CNS = test system: SNB-75 CNS
HOP-92 NSCLC = test system: HOP-92 NSCLC
NCI-H460 lung = test system: NCI-H460 lung
HCT-15 colon = test system: HCT-15 colon
RXF 393 renal = test system: RXF 393 renal
NCI-H23 lung = test system: NCI-H23 lung
HCT-116 colon = test system: HCT-116 colon
SW-620 colon = test system: SW-620 colon
SK-MEL-5 melanoma = test system: SK-MEL-5 melanoma
SNB-19 CNS = test system: SNB-19 CNS
DLD-1 colon = test system: DLD-1 colon
CCRF-CEM leukemia = test system: CCRF-CEM leukemia
HCC-2998 colon = test system: HCC-2998 colon
SN12C renal = test system: SN12C renal
DMS 114 small cell lung = test system: DMS 114 small cell lung
OVCAR-5 ovarian = test system: OVCAR-5 ovarian
K-562 leukemia = test system: K-562 leukemia
RPMI-8226 leukemia = test system: RPMI-8226 leukemia
SNB-78 CNS = test system: SNB-78 CNS
M19-MEL melanoma = test system: M19-MEL melanoma
SR leukemia = test system: SR leukemia
UACC-62 melanoma = test system: UACC-62 melanoma
TK-10 renal = test system: TK-10 renal
UACC-257 melanoma = test system: UACC-257 melanoma
IGROV1 ovarian = test system: IGROV1 ovarian
DU-145 prostate = test system: DU-145 prostate
MDA-N = test system: MDA-N
NCI/ADR-RES ovarian = test system: NCI/ADR-RES ovarian
EKVX NSCLC = test system: EKVX NSCLC
MDA-MB-435 = test system: MDA-MB-435
HS 578T breast = test system: HS 578T breast
MCF7 breast = test system: MCF7 breast
T-47D breast = test system: T-47D breast
PC-3 prostate = test system: PC-3 prostate
BT-549 breast = test system: BT-549 breast
MDA-MB-231 breast = test system: MDA-MB-231 breast
NCI-H226 lung = test system: NCI-H226 lung

Measured: TGI

COc1ccc2c([nH]c3c(O)c(-c4c(C)cc5c([nH]c6c(CC=C(C)C)c(OC)ccc65)c4O)c(C)cc32)c1CC=C(C)C
not listed: DU-145 prostate | MDA-N | NCI/ADR-RES ovarian | EKVX NSCLC | MDA-MB-435 | HS 578T breast | MCF7 breast | T-47D breast | PC-3 prostate | BT-549 breast | MDA-MB-231 breast | NCI-H226 lung
> 100 µM: all other assays above

O=[N+]([O-])C(C=C(n1nnc2ccccc21)n1nnc2ccccc21)=C(n1nnc2ccccc21)n1nnc2ccccc21
66.6 µM: SR leukemia
93.4 µM: MOLT-4 leukemia
not listed: DMS 273 small cell lung | OVCAR-4 ovarian | SK-MEL-2 melanoma | LXFL 529 NSCLC | HOP-18 NSCLC | SK-MEL-28 melanoma | KM20L2 colon | NCI-H522 lung | SNB-75 CNS | SK-MEL-5 melanoma | DLD-1 colon | DMS 114 small cell lung | SNB-78 CNS | M19-MEL melanoma | UACC-257 melanoma
> 100 µM: all other assays above

CN1CCN([C@H]2C[C@H]3[C@@H]4CC=C5C[C@@H](O)CC[C@]5(C)[C@H]4CC[C@]3(C)[C@H]2O)CC1
28.6 µM: HT29 colon
34.6 µM: MDA-N
51.9 µM: RXF 393 renal
33.9 µM: M14 melanoma
> 63.2 µM: MCF7 breast
> 57.1 µM: OVCAR-8 ovarian
97.4 µM: SNB-75 CNS
> 58.1 µM: MALME-3M melanoma
> 69.3 µM: UACC-257 melanoma
49.7 µM: SW-620 colon
> 59.2 µM: NCI-H460 lung | HCT-15 colon
> 57.8 µM: OVCAR-3 ovarian
> 62 µM: SNB-19 CNS
50.6 µM: RPMI-8226 leukemia
> 54.7 µM: SK-MEL-5 melanoma
32.1 µM: 786-0 renal
> 59.4 µM: SF-268 CNS
31 µM: MDA-MB-435
32.8 µM: U251 CNS
39.7 µM: HL-60(TB) leukemia | K-562 leukemia
> 64.7 µM: MDA-MB-231 breast
> 82.8 µM: OVCAR-5 ovarian
> 60.5 µM: UACC-62 melanoma
> 56.5 µM: SF-539 CNS
> 57.3 µM: LOX IMVI melanoma | SK-MEL-28 melanoma
> 82.5 µM: MOLT-4 leukemia
53.3 µM: SR leukemia
> 86.6 µM: PC-3 prostate
57.1 µM: CCRF-CEM leukemia
> 86.3 µM: KM12 colon
> 77.8 µM: T-47D breast
> 56.6 µM: OVCAR-4 ovarian
> 80.6 µM: HCT-116 colon
not listed: DMS 273 small cell lung | LXFL 529 NSCLC | HOP-18 NSCLC | KM20L2 colon | DLD-1 colon | DMS 114 small cell lung | SNB-78 CNS | M19-MEL melanoma
> 100 µM: all other assays above
